These results are taken from patent publication US6893829B2, “Human leukocyte 12-lipoxygenase and its role in the pathogenesis of disease states” (City of Hope, priority 1992, dated 2005).

The test system of data set [1] is VEGF protein in AIHSMC. The experiment in a line: VEGF protein expression in immortalized human aortic smooth muscle cell line (AIHSMC). It counts as cell-based. To be noted: five hours. How it is done:
FIG. 10 illustrates the effect of a 12-lipoxygenase product 12-HPETE on VEGF protein (42 kD) expression in an immortalized human aortic smooth muscle cell line (AIHSMC). The cells were serum starved for 24 hours and then placed in fresh medium along with 12-HPETE. Cells were incubated for five hours and VEGF protein was then identified in cell lysed as described in the legend to FIG. 8.

Data set [2] has as its system RINm5F cells. The data set is described as follows: DNA synthesis (3H-thymidine incorporation) in RINm5F cells. It counts as cell-based, rat. Conditions: 24 hours, 12-HETE 10^−9M. How it is done: FIG. 11 illustrates the effects of 12-LO products on DNA synthesis in the insulin-producing rat beta cell line, RINm5F. DNA synthesis was studied using ^3H-thymidine incorporation (luCi/ml) added for the last six hours (18-24 hours of experiment). The LO products were added to the cells in complete growth media for 24 hours.
(§1) Applicants have discovered that direct addition of the 12-LO products 12-S-HETE or 12-HPETE directly decreases cellular growth as reflected by decreased ^3H thymidine incorporation or DNA synthesis in the rat pure beta cell line RIN-M5F.

For data set [3], the target named is leukocyte 12-LO (Sus scrofa, UniProt P16469). Conditions: reference 55; cited from earlier work.
In data set [4] the test system is leukocyte-type 12-LO in PVSMC. The data set is described as follows: 12-LO activity, mRNA and protein in PVSMC. It counts as cell-based, porcine. To be noted: 24 hours; for increase in 12-HETE HPLC peak (12-LO enzyme activity): 2.5 ng/ml; for 12-LO mRNA expression in PVSMC: FIG. 14. Here is the method: FIG. 14A illustrates the dose-dependent effect of the cytokine interleukin-1β on 12-LO mRNA expression in porcine aortic smooth muscle cells (PVSMC). Confluent PVSMC growth in normal glucose medium was serum depleted for 24 hours by placing in medium+0.2% BSA+0.4% FCS. This medium was then freshly replaced along with IL-1β and the cells incubated for a further 24 hours. At the end of the incubation, total RNA was extracted from the cells using RNA-STAT. This RNA was the subjected to reverse-transcriptase polymerase chain reaction (RT-PCR) to detect and quantitate leukocyte-type 12-LO mRNA (333 bp PCR product, upper panel) using our well established techniques. The expression of GAPDH mRNA 284 bp, lower panel) was used as an internal control for PCR and for quantitation.
FIG. 14B illustrates the effect of the cytokine IL-4 on 12-LO mRNA expression in PVSMC. The ells were treated for 24 hours with IL-4 and 12-LO mRNA quantitated as described in the legend to FIG. 14A. It is clearly seen that IL-4 also increases 12-LO mRNA expression similar to IL-1β.
FIG. 14C illustrates the effect of the cytokine IL-8 on 12-LO mRNA expression in PVSMC. The cells were treated for 24 hours with IL-8 and 12-LO mRNA quantitated as described under legend 14A.
(§2) The cells were cultured in DME (normal glucose) and treated for 24 hours±cytokines in medium containing 0.2% BSA and 0.4% serum. Intracellular 12-LO enzyme activity was measured by HPLC, leukocyte-type 12-LO protein expression by immunoblotting and 12-LO mRNA by a specific reverse transcriptase polymerase chain reaction (RT-PCR). […] Treatment with these cytokines (0.5-5 ng/ml) also led to an increase (1.4-2.5-fold) in 12-LO protein expression 72 kD). In addition, all three cytokines (2.5 ng/ml) could induce a significant increase in PVSMC DNA synthesis (1.280.08, 1.67±0.11 and 1.3±0.07 fold increase in ^3H thymidine incorporation with IL-1, -4, and -8 respectively, p<0.01).

In data set [5] the test system is PVSMC. The data set is described as follows: PVSMC DNA synthesis (3H thymidine incorporation). To be noted: 2.5 ng/ml. Format: cell-based, porcine. Here is the method: as §2
Data set [6] relates to 12-LO product formation in PVSMC. The data set is described as follows: 12-HETE in PVSMC cultured in glucosamine (RIA). It counts as cell-based, porcine. Conditions: glucosamine 7.5 mM. Here is the method: Porcine vascular smooth muscles cells (PVSMC) were cultured in the presence of glucosamine (7.5 mM) for 24 hours. New media was then added with glucosamine (7.5 mM) for 25 minutes. The cells and media above the cells were collected and 12-HETE was measured using RIA. A very large increase in 12-HETE release into the media in cells cultured in glucosamine compared to those in normal glucose (6.48±1.2 pg/ml 12-HETE release in normal glucose vs. 20.6±3.6 pg/ml released in glucosamine n=4) was observed. Furthermore, cell associated 12-HETE was higher in glucosamine treated cells (735.9±67 pg/cell incubate normal glucose vs. 1225±112 pg in glucosamine).

In data set [7] the test system is 12-LO in RINm5F cells. The data set is described as follows: 12-LO protein, mRNA and activity in RINm5F cells. Format: cell-based, rat. How it is done: FIG. 12 illustrates a western immunoblot of proteins isolated from the insulin producing rat beta cell line, RINm5F showing the effect of interleukin-1β on 12-LO protein expression. In these studies, 25 μg of protein was isolated from the cells grown for 16 hours in reduced serum-containing medium 0.4% alone or along with IL-1β (0.1 ng/ml).
as §1
(§3) It has been discovered that IL-1β induces 12-LO protein and mRNA expression in RIN-M5F cells and 12-LO mRNA expression in rat islets.

The subject of data set [8] is 12-LO in rat pancreatic islets. The data set is described as follows: 12-HETE production and 12-LO mRNA in rat pancreatic islets. It counts as cell-based.
Text: as §1, §3

Sequence of leukocyte 12-LO (P16469 whole entry): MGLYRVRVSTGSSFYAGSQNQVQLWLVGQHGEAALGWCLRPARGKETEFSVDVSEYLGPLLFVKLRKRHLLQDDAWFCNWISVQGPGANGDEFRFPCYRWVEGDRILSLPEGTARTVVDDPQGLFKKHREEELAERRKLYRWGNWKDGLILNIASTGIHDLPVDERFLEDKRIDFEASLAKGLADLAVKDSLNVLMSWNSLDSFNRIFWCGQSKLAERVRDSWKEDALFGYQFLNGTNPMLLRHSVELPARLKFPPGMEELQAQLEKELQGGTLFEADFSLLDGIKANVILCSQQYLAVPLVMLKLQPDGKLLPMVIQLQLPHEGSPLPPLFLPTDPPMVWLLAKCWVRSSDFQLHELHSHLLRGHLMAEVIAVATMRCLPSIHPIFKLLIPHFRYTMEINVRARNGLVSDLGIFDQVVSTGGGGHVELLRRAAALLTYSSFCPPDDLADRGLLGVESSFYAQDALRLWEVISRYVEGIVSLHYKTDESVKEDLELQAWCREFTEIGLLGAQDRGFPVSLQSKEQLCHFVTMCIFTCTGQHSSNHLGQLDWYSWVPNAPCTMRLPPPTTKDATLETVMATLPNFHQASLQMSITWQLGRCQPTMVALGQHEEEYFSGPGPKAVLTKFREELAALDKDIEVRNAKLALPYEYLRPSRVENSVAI

With `CCCCC/C=C\CC(/C=C/C=C\C/C=C\CCCC(=O)O)OO` (stereo not shown) [12-HPETE, 12-Hydroperoxyeicosatetraenoic Acid], the “VEGF protein (42 kD) expression” value in data set [1] is “causes an increase”. In addition, in data set [2], the “3H-thymidine incorporation (DNA synthesis)” value is given as “reduced”.
For `C=C[C@H](O)C#CC#CC/C=C\CCCCCCC` [Panaxynol], in data set [3], the “inhibition of leukocyte 12-LO” value is recorded as “relatively selective inhibitor”.
Regarding IL-4: cytokine IL-4, in data set [4], the “increase in 12-HETE HPLC peak (12-LO enzyme activity)” value (from here on “increase in 12-HETE HPLC peak”) is 43% and the “12-LO mRNA expression in PVSMC” value is “increases”. In addition, in data set [5], the “increase in 3H thymidine incorporation” value was 1.67±0.11 fold.
For the compound IL-8: cytokine IL-8, in data set [4], the “increase in 12-HETE HPLC peak” value came to 36% and the “12-LO mRNA expression in PVSMC” value is reported as “dose-dependent increase”. Moreover, the “increase in 3H thymidine incorporation” value in data set [5] worked out at 1.3±0.07 fold.
On to `N[C@H]1C(O)O[C@H](CO)[C@@H](O)[C@@H]1O` (stereo partly shown) [glucosamine], for which, in data set [6] (normal glucose 6.48±1.2), the “12-HETE release into the media” value was determined as 20.6 ± 3.6 pg/mL. For the same compound, the “cell associated 12-HETE” value in data set [6] (normal glucose 735.9±67 pg/cell incubate) worked out at 1225 ± 112 pg.
On to IL-1β: cytokine interleukin-1β, for which, in data set [7] (IL-1β 0.1 ng/ml, 16 hours), the “increase in 12-LO protein expression” value is 2 fold. Also, the “12-LO pathway activity (radioimmunoassay for 12-HETE)” value in data set [7] (RIN-M5F) is reported as “increased 12-LO pathway activity”. For the same compound, the “12-LO mRNA expression (competitive PCR)” value in data set [7] (RIN-M5F, 16 hours) is “concomitant increase”. Besides, in data set [7] (human IL-1B at 0.2 ng), the “increase in leukocyte 12-LO protein expression” value is “approximately two”. The “12-LO mRNA and enzyme activity in purified Sprague-Dawley rat islets” value in data set [8] was “increased expression of 12-LO mRNA and enzyme activity”. In addition, in data set [8] (IL-1B 2.5 ng/ml, basal 92), the “immunoreactive release of 12-S-HETE” value came out at 250 pg/ml/40 islets. For the same compound, in data set [4], the “increase in 12-HETE HPLC peak” value is listed as 51% and the “12-LO mRNA expression in PVSMC” value is “dose-dependent increase”.
